Laboratory results from ChEMBL document CHEMBL5729404, “Heterocyclic RIP1 kinase inhibitors” (2022).

molecular target: T1, Receptor-interacting serine/threonine-protein kinase 1 (Homo sapiens, UniProt Q13546); assay: Adding 5 μl of ADP-Glo™ terminated the reaction.
T1 sequence (Q13546 whole entry): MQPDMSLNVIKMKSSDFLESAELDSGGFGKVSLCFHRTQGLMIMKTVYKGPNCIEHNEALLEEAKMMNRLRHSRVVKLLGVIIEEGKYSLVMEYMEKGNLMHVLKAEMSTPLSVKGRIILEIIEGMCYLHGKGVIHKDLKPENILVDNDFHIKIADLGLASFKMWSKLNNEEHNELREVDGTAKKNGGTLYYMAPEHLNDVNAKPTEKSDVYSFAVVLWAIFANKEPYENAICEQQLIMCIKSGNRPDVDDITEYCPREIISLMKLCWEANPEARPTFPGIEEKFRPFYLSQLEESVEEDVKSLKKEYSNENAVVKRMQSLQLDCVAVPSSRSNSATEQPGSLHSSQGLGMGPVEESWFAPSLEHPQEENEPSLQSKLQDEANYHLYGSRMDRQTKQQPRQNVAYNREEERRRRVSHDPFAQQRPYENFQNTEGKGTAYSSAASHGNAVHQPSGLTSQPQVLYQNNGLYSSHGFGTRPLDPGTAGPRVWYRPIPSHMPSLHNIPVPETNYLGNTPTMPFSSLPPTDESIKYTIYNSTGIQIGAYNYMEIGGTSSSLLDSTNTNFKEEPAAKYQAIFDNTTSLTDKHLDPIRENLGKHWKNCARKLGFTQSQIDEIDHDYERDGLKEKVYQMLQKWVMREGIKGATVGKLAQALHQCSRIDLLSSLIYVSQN

Q: With `CN1C(=O)[C@@H](NC(=O)n2cc(Cc3ccncc3)cn2)COc2ccc(Br)cc21` as the compound, how does the IC50 read?
A: The IC50 was 0.102 µM.

Q: How did the IC50 turn out when `CN1C(=O)[C@@H](NC(=O)n2cc(Cc3cccnn3)cn2)COc2ccc(Br)cc21` was run?
A: Its IC50 is 0.83 µM.

Q: Which IC50 does the source give for `CN1C(=O)[C@@H](NC(=O)n2cc(Cc3cccnc3)cn2)COc2ccc(Br)cc21` here?
A: The IC50 was 0.0083 µM.

Q: How did the IC50 turn out when `CN1C(=O)[C@@H](NC(=O)n2cc(Cc3cccc(C(F)(F)F)n3)cn2)COc2ccc(Br)cc21` was run?
A: Its IC50 is 0.168 µM.

Q: With `Cc1cccc(Cc2cnn(C(=O)N[C@H]3COc4ccc(Br)cc4N(C)C3=O)c2)n1` as the compound, how does the IC50 read?
A: Its IC50 is 0.104 µM.

Q: For `CN1C(=O)[C@@H](NC(=O)n2cc(Cc3ccccn3)cn2)COc2ccc(Br)cc21`, which IC50 is on record?
A: The IC50 was 0.0652 µM.

Q: Which IC50 does the source give for `CN1C(=O)[C@@H](NC(=O)n2cc(Cc3ccc(F)nc3)cn2)COc2ccc(Br)cc21` here?
A: Its IC50 is 0.0403 µM.

Q: For `CN1C(=O)[C@@H](NC(=O)n2cc(Cc3cccc(F)n3)cn2)COc2ccc(Br)cc21`, which IC50 is on record?
A: The IC50 was 0.0217 µM.
